Experimental data taken from patent publication US11866430B2, “Naphthyridinone compounds useful as T cell activators” (priority 2018, dated 2024).
Like-named read-outs stand apart in the source and are kept apart here.

Tests used:
[1] = test system: Jurkat AP1-luciferase Reporter; experiment: DGK AP1-Reporter Assay; assay type: cell-based; conditions: Homo sapiens, Jurkat
Outline: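 Jurkat cells carrying a lentiviral AP1-luciferase reporter received 30 nl compound per well for 20 min at 37 °C and 5% CO2. They were then stimulated for 6 h with anti-CD3 solution at 0.4 μg/mL; reference wells received 4 μg/mL and unstimulated wells medium only. Readout was Steady-Glo luciferase luminescence (RLU).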

[2] = test system: OT-1 antigen-specific CD8+ T cells with MC38 tumor cells; experiment: Murine Cytotoxic T Lymphocyte Assay (IFN-γ); assay type: cell-based, mouse; conditions: Mus musculus, MC-38, read-out: msCTL INF-γ IC50, murine CTL IFN-γ (table title reads INF-γ Whole Blood Normalized Agonist EC50)
Text: An antigen-specific cytolytic T-cell (CTL) assay was developed to evaluate functionally the ability of DGKα and DGKζ inhibitors to enhance effector T cell mediated tumor cell killing activity. CD8+ T-cells isolated from the OT-1 transgenic mouse recognize antigen presenting cells, MC38, that present the ovalbumin derived peptide […]. Recognition of the cognate antigen initiates the cytolytic activity of the OT-1 antigen-specific CD8+ T cells.
Functional CTL cells were generated as follows: OT-1 splenocytes from 8-12 week old mice were isolated and expanded in the presence of the […] peptide at 1 μg/mL and mIL2 at 10 U/mL. After three days, fresh media with mIL2 U/mL was added. On day 5 of the expansion, the CD8+ T cells were isolated and ready for use. Activated CTL cells may be stored frozen for 6 months. […] The cells were washed (3×) with fresh media to remove excess peptide. Finally, CTL cells that were pretreated with DGK inhibitors for 1 hour in a 96-well U bottom plate were combined with the antigen loaded MC38 tumor cells at a 1:10 ratio. The cells were then spun at 700 rpm for 5 min and placed in an incubator overnight at 37° C. After 24 hours, the supernatant was collected for analysis of IFN-γ cytokine levels by AlphaLisa purchased from Perkin Elmer.

human DGKζ = human DGKζ (Homo sapiens (Human), UniProt Q13574); experiment: DGKζ assay (detergent/lipid micelle substrate); assay type: biochemical
Sequence of human DGKζ (Q13574 other isoform, or with tags, fused parts or gaps): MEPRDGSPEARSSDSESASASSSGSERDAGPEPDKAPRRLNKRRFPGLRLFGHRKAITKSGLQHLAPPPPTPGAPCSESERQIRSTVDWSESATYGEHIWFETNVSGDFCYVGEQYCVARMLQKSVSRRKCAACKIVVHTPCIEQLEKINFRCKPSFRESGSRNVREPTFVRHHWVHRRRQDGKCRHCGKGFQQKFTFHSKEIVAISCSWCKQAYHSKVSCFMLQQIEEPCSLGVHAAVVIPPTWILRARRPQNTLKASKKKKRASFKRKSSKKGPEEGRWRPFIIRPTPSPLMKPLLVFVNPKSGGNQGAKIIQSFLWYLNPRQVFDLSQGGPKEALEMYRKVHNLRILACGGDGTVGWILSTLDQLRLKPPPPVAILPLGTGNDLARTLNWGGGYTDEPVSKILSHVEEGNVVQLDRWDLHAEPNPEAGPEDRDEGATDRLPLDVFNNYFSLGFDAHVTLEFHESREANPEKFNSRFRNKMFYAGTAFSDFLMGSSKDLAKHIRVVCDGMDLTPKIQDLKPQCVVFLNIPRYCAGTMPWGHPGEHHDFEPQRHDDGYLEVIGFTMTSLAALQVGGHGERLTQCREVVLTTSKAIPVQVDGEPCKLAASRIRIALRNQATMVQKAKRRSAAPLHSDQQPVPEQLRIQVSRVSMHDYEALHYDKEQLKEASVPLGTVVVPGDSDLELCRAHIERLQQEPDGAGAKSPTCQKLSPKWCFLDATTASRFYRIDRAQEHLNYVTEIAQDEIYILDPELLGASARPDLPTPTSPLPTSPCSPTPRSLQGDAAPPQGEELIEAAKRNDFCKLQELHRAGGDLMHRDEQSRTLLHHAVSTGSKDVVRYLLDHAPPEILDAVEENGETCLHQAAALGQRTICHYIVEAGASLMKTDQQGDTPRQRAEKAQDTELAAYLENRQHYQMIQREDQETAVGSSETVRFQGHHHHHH
Outline: (§1)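 Enzymes were baculovirus/Sf9 full-length human DGKα or DGKζ with His tag. The substrate was PS/DAG in octyl glucoside micelles, in MOPS pH 7.5 buffer with NaCl, MgCl2, CaCl2 and DTT.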

Human venous whole blood = experiment: Human Whole Blood IFN-γ Assay; assay type: cell-based; conditions: Homo sapiens
Method: Human venous whole blood (22.5 μL per well), obtained from healthy donors, was pre-treated with compounds for one hour at 37° C. in a humidified 95% air/5% CO2 incubator. The blood was stimulated with 2.5 μL anti-human CD3 and anti-CD28 mAb at a final concentration of 1 μg/mL each for 24 hours at 37° C. IFN-γ in the supernatants was measured using AlphaLISA kit (Cat #AL217).

human DGKα = human DGKα (Homo sapiens (Human), UniProt P23743); experiment: biochemical; conditions: detergent/lipid micelle substrate; read-out: DGKα IC50
Sequence of human DGKα (P23743 other isoform, or with tags, fused parts or gaps): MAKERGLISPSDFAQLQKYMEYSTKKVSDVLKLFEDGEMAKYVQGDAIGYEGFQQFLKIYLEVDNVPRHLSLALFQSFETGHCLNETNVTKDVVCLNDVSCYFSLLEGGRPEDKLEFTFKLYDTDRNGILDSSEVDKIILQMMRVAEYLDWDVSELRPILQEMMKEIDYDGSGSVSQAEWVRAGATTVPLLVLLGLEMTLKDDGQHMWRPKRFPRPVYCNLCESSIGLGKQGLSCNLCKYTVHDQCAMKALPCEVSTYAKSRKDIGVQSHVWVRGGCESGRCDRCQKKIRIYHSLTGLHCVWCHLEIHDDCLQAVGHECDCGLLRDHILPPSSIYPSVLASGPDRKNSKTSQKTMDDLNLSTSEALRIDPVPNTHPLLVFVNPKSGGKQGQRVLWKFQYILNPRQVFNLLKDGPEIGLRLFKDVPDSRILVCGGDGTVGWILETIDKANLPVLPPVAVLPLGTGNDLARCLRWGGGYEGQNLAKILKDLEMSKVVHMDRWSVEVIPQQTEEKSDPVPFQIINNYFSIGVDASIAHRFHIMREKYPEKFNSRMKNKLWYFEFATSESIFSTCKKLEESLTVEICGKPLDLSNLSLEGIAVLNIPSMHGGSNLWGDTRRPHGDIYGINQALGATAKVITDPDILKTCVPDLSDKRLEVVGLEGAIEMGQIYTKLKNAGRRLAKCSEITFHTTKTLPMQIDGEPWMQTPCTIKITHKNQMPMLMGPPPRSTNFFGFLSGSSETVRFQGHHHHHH
Outline: as §1

naïve human CD8 T cells = experiment: CellTiter-Glo CD8 T Cell Proliferation Assay; assay type: cell-based; conditions: Homo sapiens, T-cell, CellTiter-Glo CD8 T cell proliferation, normalized; read-out: CD8 GLO normalized EC50
Method: Frozen naïve human CD8 T cells were thawed in RPMI+10% FBS, incubated for 2 h in 37° C., and counted. The 384-well tissue culture plate was coated overnight at 4° C. with 20 μl anti-human CD3 at 0.1 μg/mL in plain RPMI, which was removed off the plate before 20 k/40 μl CD8 T cells with 0.5 μg/mL soluble anti-human CD28 were added to each well. The compounds were echoed to the cell plate immediately after the cells were plated. After 72 h incubation at 37° C. incubator, 10 μl CellTiter-glo reagent (Promega catalog number G7570) was added to each well. The plate was vigorously shaken for 5 mins, incubated at room temperature for another 15 mins and read on Envision for CD8 T cell proliferation. In analysis, 0.1 μg/mL anti-CD3 and 0.5 μg/mL anti-CD28 stimulated CD8 T cell signal was background.

[3] = test system: pre-activated CD4 T cells and Raji cells; experiment: Raji CD4 T Cell IL2 Assay; assay type: cell-based; conditions: Homo sapiens, Raji
[4] = read-out: API-Luciferase Reporter IC50, Table 3
[5] = detergent/lipid micelle substrate, read-out: DGKζ IC50
[6] = read-out: DGKAP1 Lucif Reporter IC50, Table 4

| Structure (SMILES) | IC50 [1, 4] | IC50 [2] | IC50 (human DGKζ; [5]) | EC50 (Human venous whole blood; human whole blood, anti-CD3 plus anti-CD28 as baseline, 3 μM Example 40 co-stimulation as 100% activation, read-out: INF-γ Whole Blood Normalized Agonist EC50) | EC50 (Human venous whole blood; read-out: INF-γ Whole Blood Agonist EC50) | IC50 (human DGKα) | IC50 [1, 6] | IC50 (human DGKζ; DGKζ IC50, detergent/lipid micelle substrate) | EC50 (naïve human CD8 T cells) | IC50 [3] |
| --- | --- | --- | --- | --- | --- | --- | --- | --- | --- | --- |
| COCCn1c(=O)c([N+](=O)[O-])c(N2CCN(C(c3ccc(F)cc3)c3ccccc3O)CC2)c2nc(C#N)ccc21 (stereo not shown) [Example 145, 8-(4-((4-fluorophenyl)(2-hydroxyphenyl)methyl)piperazin-1-yl)-5-(2-methoxyethyl)-7-nitro-6-oxo-5,6-dihydro-1,5-naphthyridine-2-carbonitrile] | 0.57 µM | 0.46 µM | 2.3 µM | 1.87 µM | 1.33 µM | 30 µM | – | – | – | – |
| CC(c1ccc(F)cc1)N1CCN(c2c(C#N)c(=O)n(CC3CC3)c3ccc(Br)nc23)CC1 (racemic) [Example 162, 6-bromo-1-(cyclopropylmethyl)-4-(4-(1-(4-fluorophenyl)ethyl)piperazin-1-yl)-2-oxo-1,2-dihydro-1,5-naphthyridine-3-carbonitrile] | 4.81 µM | – | – | – | – | 160 µM | 10 µM | > 240 µM | 10 µM | – |
| COc1ccccc1C(c1ccc(F)cc1)N1CCN(c2c(C#N)c(=O)n(CC3CC3)c3ccc(Br)nc23)CC1 (racemic) [Example 158, 6-bromo-1-(cyclopropylmethyl)-4-(4-((4-fluorophenyl)(2-methoxyphenyl)methyl)piperazin-1-yl)-2-oxo-1,2-dihydro-1,5-naphthyridine-3-carbonitrile] | 4.59 µM | – | > 240 µM | – | – | > 240 µM | 10 µM | – | 0.92 µM | – |
| COc1ccc2c(c1)C(N1CCN(c3c(C#N)c(=O)n(CC#N)c4ccc(Br)nc34)CC1)CC2 (stereo not shown) [Example 156, 6-bromo-1-(cyanomethyl)-4-(4-(6-methoxy-2,3-dihydro-1H-inden-1-yl)piperazin-1-yl)-2-oxo-1,2-dihydro-1,5-naphthyridine-3-carbonitrile] | 10 µM | – | 140 µM | – | – | 170 µM | 10 µM | – | 0.14 µM | > 100 µM |
